For test [1], the system named is female antennae of sand fly Phlebotomus papatasi and mosquitoes Aedes aegypti, Anopheles gambiae, Anopheles stephensi. The test is described as follows: GC-EAD responses of sand fly and three mosquitoes to synthetic mixtures. As to conditions: about 100 ng of each compound, on one or more of the sand fly or the mosquitoes, FIGS. 9 and 10. Summed up:
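Female antennae recorded by GC-EAD (split with FID) against synthetic mixtures with about 100 ng of each compound, 1-octen-3-ol as positive control; polar Innowax column, 50° C 2 min then 10° C/min to 240° C. Effluent in humidified air at 0.5 liter/min over severed-head preparation with Ringer-filled electrodes.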

Test [2] relates to antennae of housefly, sand fly, and mosquitoes Aedes aegypti, Anopheles gambiae, Anopheles stephensi. The test is described as follows: GC-EAD antennal responses to SPME samples of clove essential oil. As to conditions: component of clove essential oil SPME sample; response by one or more of the insects; FIG. 1. Here is the method:
The GC-EAD antennal response of a female housefly (Musca domestica), sand fly (Phlebotomus papatasi), and mosquitoes including the species Aedes aegypti, Anopheles gambiae, and Anopheles stephensi were tested with clove essential oil. FIG. 1 is a simultaneous recording of GC flame ionization detection (FID) and electroantennographic detection (EAD) of the insect antennae to solid phase microextraction (SPME: CAR/PDMS) samples of clove essential oil in a 20 ml glass vial for 20 sec.
(§1) The following procedures were employed to test the EAD response of an insect antenna to a repellent compound. The GC-EAD technique provides an efficient tool for screening behaviorally active repellents. Several synthetic mixtures of potential insect repellent candidates, mostly sesquiterpene hydrocarbons and derivatives, were analyzed in splitless mode using a Varian CP-3800 GC equipped with a polar column (Innowax; 1.0 μm film thickness, 30 m×0.53 mm ID; J & W Scientific), and a 1:1 effluent splitter that allowed simultaneous flame ionization detection (FID) and EAD of the separated volatile compounds. Helium was used as the carrier gas, and the injector temperature was 220° C. The column temperature was 50° C. for 2 min, rising to 240° C. at 10° C./min, then held for 10 min. The outlet for the EAD was held in a humidified air stream flowing at 0.5 liter/min. over an antennal preparation. A glass capillary indifferent electrode filled with Beadle-Ephrussi Ringer, and grounded via a silver wire, was inserted into the severed insect's head with the antennae. A similar recording electrode connected to a high-impedance DC amplifier with automatic baseline drift compensation was placed in contact with the distal end of one antenna (Zhang et al., Chemoecology, 10:69-80 (2000)). The antennal signals were stored and analyzed on a PC equipped with a serial IDAC interface box and the program EAD ver. 2.5 (Syntech, Hilversum, The Netherlands). The compound 1-octen-3-ol (known attractant for many flies and mosquitoes) was included in most of the synthetic mixtures, as a positive control. […]

For test [3], the system named is male false stable fly Muscina stabulans antenna and female mosquito Aedes (Ochlerotatus) increpitus Dyar antenna. As to the kind of experiment: GC-EAD responses of false stable fly and Aedes increpitus to a synthetic mixture. To be noted: about 100 ng of each compound, FIG. 5. Here is the method:
The GC-EAD responses of the male false stable fly Muscina stabulans antenna and the female mosquito Aedes (Ochlerotatus) increpitus Dyar antenna were tested on a synthetic mixture of linalool and two representative sesquiterpene hydrocarbons, β-caryophyllene and α-humulene, and one sesquiterpene oxide, β-caryophyllene oxide, with about 100 ng of each compound in the mixture.
The following procedures were employed to test the EAD response of an insect antenna to a repellent compound. The GC-EAD technique provides an efficient tool for screening behaviorally active repellents. Several synthetic mixtures of potential insect repellent candidates, mostly sesquiterpene hydrocarbons and derivatives, were analyzed in splitless mode using a Varian CP-3800 GC equipped with a polar column (Innowax; 1.0 μm film thickness, 30 m×0.53 mm ID; J & W Scientific), and a 1:1 effluent splitter that allowed simultaneous flame ionization detection (FID) and EAD of the separated volatile compounds. Helium was used as the carrier gas, and the injector temperature was 220° C. The column temperature was 50° C. for 2 min, rising to 240° C. at 10° C./min, then held for 10 min. The outlet for the EAD was held in a humidified air stream flowing at 0.5 liter/min. over an antennal preparation. A glass capillary indifferent electrode filled with Beadle-Ephrussi Ringer, and grounded via a silver wire, was inserted into the severed insect's head with the antennae. A similar recording electrode connected to a high-impedance DC amplifier with automatic baseline drift compensation was placed in contact with the distal end of one antenna (Zhang et al., Chemoecology, 10:69-80 (2000)). The antennal signals were stored and analyzed on a PC equipped with a serial IDAC interface box and the program EAD ver. 2.5 (Syntech, Hilversum, The Netherlands). The compound 1-octen-3-ol (known attractant for many flies and mosquitoes) was included in most of the synthetic mixtures, as a positive control. The results of the experiments are shown in FIGS. 1-10 and described above.

Test [4] deals with antennae of Musca domestica, Lucillia sericata, Sarcophaga sp., Muscina stabulans, Culex pipiens, Aedes increpitus. The test is described as follows: GC-EAD responses of several flies and two mosquitoes to a synthetic mixture. To be noted: about 100 ng of each compound, FIG. 6. Here is the method: The GC-EAD responses of several species of flies and two species of mosquito antennae were tested on a synthetic mixture of 1-octen-3-ol, linalool, two representative sesquiterpene hydrocarbons, β-caryophyllene and α-humulene, ZE-nepetalactone, EZ-nepetalactone, and two known insect repellents, DEET, and SS220, with about 100 ng of each compound in the mixture. DEET and SS220 are used as positive controls in the experiment. The compound 1-octen-3-ol is a known attractant for the insects and is also used as a positive control. The insects tested are species of Musca domestica, Lucillia sericata, Sarcophaga sp., Muscina stabulans, Culex pipiens, and Aedes increpitus.
as §1, with “ver.” for “ver. 2.5 (Syntech, Hilversum, The Netherlands). The compound 1-octen-3-ol (known attractant for many flies and mosquitoes) was included in most of the synthetic mixtures, as a positive control.”

Test [5] has as its system antennae of housefly, sand fly, and mosquitoes (Aedes aegypti, Aedes increpitus, Anopheles gambiae). The test is described as follows: GC-EAD antennal responses to SPME samples of patchouli essential oil. To be noted: component of patchouli essential oil SPME sample; response by one or more of the insects; FIG. 2. Here is the method:
The following procedures were employed to test the EAD response of an insect antenna to a repellent compound. The GC-EAD technique provides an efficient tool for screening behaviorally active repellents. Several synthetic mixtures of potential insect repellent candidates, mostly sesquiterpene hydrocarbons and derivatives, were analyzed in splitless mode using a Varian CP-3800 GC equipped with a polar column (Innowax; 1.0 μm film thickness, 30 m×0.53 mm ID; J & W Scientific), and a 1:1 effluent splitter that allowed simultaneous flame ionization detection (FID) and EAD of the separated volatile compounds. Helium was used as the carrier gas, and the injector temperature was 220° C. The column temperature was 50° C. for 2 min, rising to 240° C. at 10° C./min, then held for 10 min. The outlet for the EAD was held in a humidified air stream flowing at 0.5 liter/min. over an antennal preparation. A glass capillary indifferent electrode filled with Beadle-Ephrussi Ringer, and grounded via a silver wire, was inserted into the severed insect's head with the antennae. A similar recording electrode connected to a high-impedance DC amplifier with automatic baseline drift compensation was placed in contact with the distal end of one antenna (Zhang et al., Chemoecology, 10:69-80 (2000)). The antennal signals were stored and analyzed on a PC equipped with a serial IDAC interface box and the program EAD ver. 2.5 (Syntech, Hilversum, The Netherlands). The compound 1-octen-3-ol (known attractant for many flies and mosquitoes) was included in most of the synthetic mixtures, as a positive control.

SMILES strings stand for the structures.

As to `C=C1C2CCC3[C@H]2C(C)(C)CCC[C@]13C` (single isomer, unassigned; (+)) [(+)-Longifolene], in test [1], the GC-EAD antennal activity result is “antennally active”.
The same measure, in the same setting: to `C=C1CC/C=C(/C)CC[C@@H]2[C@@H]1CC2(C)C` [Isocaryophyllene, isocaryophyllene] belongs “antennally active”.
On to `C=C1CC/C=C(\C)CC[C@@H]2[C@@H]1CC2(C)C` [β-Caryophyllene, β-caryophyllene], for which the GC-EAD antennal activity result is reported as “EAD-active” in test [2]; “active on at least one of the insects tested” in test [3]; “antennally active” in test [1]; “active on at least one of the insects tested” in test [4]; “elicited EAD-activity” in test [5].

Source of the values: patent US8057829B2, “Methods for repelling insects using sesquiterpene hydrocarbons and their derivatives” (Sterling International Inc., priority 2008, dated 2011).
